From PubChem BioAssay AID248 (DTP/NCI, 2004)
Where “and” joins values, the source holds several entries; their conditions need not be identical. Equal entries are not always repeated. Toxic doses and inconclusive results are not listed. No stated cut-off is given here; in the data, active means T/C of 150% or more; inactive means T/C below 125%.

System: L1210 leukemia ip in BDF1 mice, survival T/C
Assay: NCI In Vivo Anticancer Drug Screen. Data for tumor model L1210 Leukemia (intraperitoneal) in B6D2F1 (BDF1) mice
Conditions: endpoint: mean survival time, higher = longer survival
Procedure, shortened: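 Tumor was transplanted into mice, which were then dosed with test compound or vehicle alone. Survival was recorded for each group, and the treated figure was expressed relative to the control figure.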

[1] = dose: 100.0 mg/kg/injection, schedule: Q04DX003 (ip), vehicle: saline with Tween-80
[2] = dose: 200.0 mg/kg/injection, schedule: Q04DX003 (ip), vehicle: saline with Tween-80
[3] = dose: 400.0 mg/kg/injection, schedule: Q04DX003 (ip), vehicle: saline with Tween-80
[4] = dose: 25.0 mg/kg/injection, schedule: Q04DX002 (ip), vehicle: saline with Tween-80
[5] = dose: 50.0 mg/kg/injection, schedule: Q04DX002 (ip), vehicle: saline with Tween-80
[6] = dose: 75.0 mg/kg/injection, schedule: Q01DX001 (ip), vehicle: saline
[7] = dose: 150.0 mg/kg/injection, schedule: Q01DX001 (ip), vehicle: saline
[8] = dose: 300.0 mg/kg/injection, schedule: Q01DX001 (ip), vehicle: saline
[9] = dose: 25.0 mg/kg/injection, schedule: Q01DX009 (ip), vehicle: saline
[10] = dose: 50.0 mg/kg/injection, schedule: Q01DX009 (ip), vehicle: saline
[11] = dose: 100.0 mg/kg/injection, schedule: Q01DX009 (ip), vehicle: saline with Tween-80
[12] = dose: 100.0 mg/kg/injection, schedule: Q01DX009 (ip), vehicle: saline
[13] = dose: 100.0 mg/kg/injection, schedule: Q04DX003 (ip), vehicle: saline
[14] = dose: 200.0 mg/kg/injection, schedule: Q01DX009 (ip), vehicle: saline
[15] = dose: 200.0 mg/kg/injection, schedule: Q04DX003 (ip), vehicle: saline
[16] = dose: 400.0 mg/kg/injection, schedule: Q04DX003 (ip), vehicle: saline

Measured: T/C

CCOC(=O)C(=O)Nc1ccc([N+](=O)[O-])cc1
inactive: [1] 87 % of control | [2] 98 % of control | [3] 87 % of control

NC(N)=NCCN1C(c2ccccc2)C1c1ccccc1 (stereo unspecified)
inactive: dose: 12.5 mg/kg/injection, schedule: Q04DX002 (ip), vehicle: saline with Tween-80 107 % of control | [4] 103 % of control | [5] 100 % of control

O=C(O)/C=C/C1CCCCC1
inactive: [6] 97 % of control | [7] 95 % of control | [8] 95 % of control

COc1ccc(Cl)cc1NC(=O)Oc1ccccc1C(N)=O
inactive: [9] 106 % of control and 113 % of control | [4] 104 % of control and 112 % of control | [10] 102 % of control | [5] 102 % of control and 91 % of control | dose: 100.0 mg/kg/injection, schedule: Q01DX001 (ip), vehicle: saline with Tween-80 107 % of control | [11] 86 % of control | [12] 98 % of control | [1] 104 % of control | dose: 200.0 mg/kg/injection, schedule: Q01DX001 (ip), vehicle: saline with Tween-80 108 % of control | dose: 200.0 mg/kg/injection, schedule: Q04DX002 (ip), vehicle: saline with Tween-80 110 % of control

CN(CCN(C)S(=O)(=O)c1ccccc1)S(=O)(=O)c1ccccc1
inactive: dose: 75.0 mg/kg/injection, schedule: Q01DX009 (ip), vehicle: Klucel (hydroxypropylcellulose) (HPC) 94 % of control | dose: 150.0 mg/kg/injection, schedule: Q01DX009 (ip), vehicle: Klucel (hydroxypropylcellulose) (HPC) 107 % of control | dose: 300.0 mg/kg/injection, schedule: Q01DX009 (ip), vehicle: Klucel (hydroxypropylcellulose) (HPC) 95 % of control

O=C(Nc1ccc(C(=O)O)cc1)Nc1ccccc1F
inactive: dose: 50.0 mg/kg/injection, schedule: Q01DX009 (ip), vehicle: Klucel (hydroxypropylcellulose) (HPC) 93 % of control | dose: 100.0 mg/kg/injection, schedule: Q01DX009 (ip), vehicle: Klucel (hydroxypropylcellulose) (HPC) 104 % of control

NS(=O)(=O)c1cc([N+](=O)[O-])ccc1Cl
inactive: [1] 108 % of control | [2] 111 % of control | [3] 95 % of control

Nc1ccc(Cc2ccc(Br)cc2)cc1
inactive: dose: 75.0 mg/kg/injection, schedule: Q01DX001 (ip), vehicle: acetone 91 % of control | dose: 150.0 mg/kg/injection, schedule: Q01DX001 (ip), vehicle: acetone 94 % of control | dose: 300.0 mg/kg/injection, schedule: Q01DX001 (ip), vehicle: acetone 94 % of control

Cc1n(Cc2ccccc2)c2c([n+]1C)C(=O)c1ccccc1C2=O
inactive: dose: 0.5 mg/kg/injection, schedule: Q01DX001 (ip), vehicle: saline 102 % of control | dose: 1.0 mg/kg/injection, schedule: Q01DX001 (ip), vehicle: saline 102 % of control | dose: 1.0 mg/kg/injection, schedule: Q04DX003 (ip), vehicle: Klucel (hydroxypropylcellulose) (HPC) 100 % of control | dose: 2.0 mg/kg/injection, schedule: Q01DX001 (ip), vehicle: saline 106 % of control | dose: 2.0 mg/kg/injection, schedule: Q04DX003 (ip), vehicle: Klucel (hydroxypropylcellulose) (HPC) 91 % of control | dose: 4.0 mg/kg/injection, schedule: Q01DX001 (ip), vehicle: saline 108 % of control | dose: 4.0 mg/kg/injection, schedule: Q04DX003 (ip), vehicle: Klucel (hydroxypropylcellulose) (HPC) 96 % of control | dose: 125.0 micrograms/kg/injection, schedule: Q01DX009 (ip), vehicle: Klucel (hydroxypropylcellulose) (HPC) 97 % of control | dose: 250.0 micrograms/kg/injection, schedule: Q01DX009 (ip), vehicle: Klucel (hydroxypropylcellulose) (HPC) 97 % of control | dose: 500.0 micrograms/kg/injection, schedule: Q01DX009 (ip), vehicle: Klucel (hydroxypropylcellulose) (HPC) 90 % of control | dose: 1000.0 micrograms/kg/injection, schedule: Q01DX009 (ip), vehicle: Klucel (hydroxypropylcellulose) (HPC) 101 % of control | dose: 2000.0 micrograms/kg/injection, schedule: Q01DX009 (ip), vehicle: Klucel (hydroxypropylcellulose) (HPC) 95 % of control

CN(C)/N=C/c1ccc[n+](C)c1
inactive: dose: 6.25 mg/kg/injection, schedule: Q01DX009 (ip), vehicle: saline 113 % of control | dose: 12.5 mg/kg/injection, schedule: Q01DX009 (ip), vehicle: saline 109 % of control | [9] 98 % of control and 110 % of control

CCCCCCCCCCCCCCCCCCN(c1ccc(C(=O)OCC)cc1)S(=O)(=O)c1ccc(C)cc1
inactive: [10] 93 % of control | [12] 93 % of control | [13] 97 % of control | [14] 90 % of control | [15] 94 % of control | [16] 94 % of control

S=c1ccnc[nH]1
inactive: dose: 100.0 mg/kg/injection, schedule: Q01DX Z (ip), vehicle: methylcellulose (MC) 87 % of control | dose: 200.0 mg/kg/injection, schedule: Q01DX Z (ip), vehicle: methylcellulose (MC) 88 % of control

COc1ccc(OC(=O)Nc2ccc(F)cc2)cc1
inactive: dose: 50.0 mg/kg/injection, schedule: Q01DX001 (ip), vehicle: carboxymethylcellulose (CMC) 97 % of control | dose: 50.0 mg/kg/injection, schedule: Q01DX009 (ip), vehicle: carboxymethylcellulose (CMC) 93 % of control and 90 % of control | dose: 50.0 mg/kg/injection, schedule: Q04DX002 (ip), vehicle: carboxymethylcellulose (CMC) 95 % of control and 106 % of control | dose: 50.0 mg/kg/injection, schedule: Q04DX003 (ip), vehicle: carboxymethylcellulose (CMC) 101 % of control | dose: 100.0 mg/kg/injection, schedule: Q01DX001 (ip), vehicle: carboxymethylcellulose (CMC) 89 % of control | dose: 100.0 mg/kg/injection, schedule: Q01DX009 (ip), vehicle: carboxymethylcellulose (CMC) 93 % of control and 103 % of control | dose: 100.0 mg/kg/injection, schedule: Q04DX002 (ip), vehicle: carboxymethylcellulose (CMC) 101 % of control and 110 % of control | dose: 100.0 mg/kg/injection, schedule: Q04DX003 (ip), vehicle: carboxymethylcellulose (CMC) 101 % of control | dose: 200.0 mg/kg/injection, schedule: Q01DX001 (ip), vehicle: carboxymethylcellulose (CMC) 89 % of control | dose: 200.0 mg/kg/injection, schedule: Q01DX009 (ip), vehicle: carboxymethylcellulose (CMC) 101 % of control and 104 % of control | dose: 200.0 mg/kg/injection, schedule: Q04DX002 (ip), vehicle: carboxymethylcellulose (CMC) 96 % of control and 106 % of control | dose: 200.0 mg/kg/injection, schedule: Q04DX003 (ip), vehicle: carboxymethylcellulose (CMC) 101 % of control

COC(=O)C1(C)CCc2c(ccc3ccccc23)C1=O (stereo unspecified)
inactive: [12] 100 % of control | [13] 97 % of control | [14] 102 % of control | [15] 94 % of control | dose: 400.0 mg/kg/injection, schedule: Q01DX009 (ip), vehicle: saline 99 % of control | [16] 102 % of control

Cc1cc(S(=O)(=O)F)ccc1NC(=O)Oc1ccccc1
inactive: dose: 100.0 mg/kg/injection, schedule: Q04DX003 (ip), vehicle: gum acacia 95 % of control | dose: 200.0 mg/kg/injection, schedule: Q04DX003 (ip), vehicle: gum acacia 104 % of control | dose: 400.0 mg/kg/injection, schedule: Q04DX003 (ip), vehicle: gum acacia 87 % of control

COC(c1ccccc1)(c1ccccc1)c1ccccc1
inactive: dose: 50.0 mg/kg/injection, schedule: Q01DX001 (ip), vehicle: saline 91 % of control | dose: 100.0 mg/kg/injection, schedule: Q01DX001 (ip), vehicle: saline 103 % of control | dose: 200.0 mg/kg/injection, schedule: Q01DX001 (ip), vehicle: saline 101 % of control | dose: 400.0 mg/kg/injection, schedule: Q01DX001 (ip), vehicle: saline 95 % of control

O=C1OC(c2ccccc2)=N/C1=C\c1ccc([N+](=O)[O-])cc1
inactive: dose: 100.0 mg/kg/injection, schedule: Q04DX002 (ip), vehicle: Klucel (hydroxypropylcellulose) (HPC) 92 % of control | dose: 200.0 mg/kg/injection, schedule: Q04DX002 (ip), vehicle: Klucel (hydroxypropylcellulose) (HPC) 89 % of control | dose: 400.0 mg/kg/injection, schedule: Q04DX002 (ip), vehicle: Klucel (hydroxypropylcellulose) (HPC) 86 % of control

CC(=O)Nc1ccc(/C=N/Nc2c([N+](=O)[O-])cc(C(F)(F)F)cc2[N+](=O)[O-])cc1
inactive: [11] 100 % of control | dose: 200.0 mg/kg/injection, schedule: Q01DX009 (ip), vehicle: saline with Tween-80 96 % of control

CCCCCCCC(=O)Oc1ccc([N+](=O)[O-])cc1
inactive: [6] 100 % of control | [7] 109 % of control | [8] 95 % of control
